# In ChEMBL document CHEMBL1201862, “PubChem BioAssay data set” (2004):
#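 A five-concentration, 48-hour dose response in 96-well plates underlies each endpoint, interpolated linearly between surrounding concentrations. GI50 is the concentration that inhibits growth by half.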 Calls of active or inactive are those of the source. Cut-off read from the data, not from the text of the source: active = GI50 up to about 1.1 µM and inactive = higher.
# Key:
# Assay in all cases: NCI-60 cell line screen, 48 h
# 786-0 = test system: 786-0
# A498 = test system: A498
# A549 = test system: A549
# ACHN = test system: ACHN
# CAKI-1 = test system: CAKI-1
# CCRF-CEM = test system: CCRF-CEM
# COLO 205 = test system: COLO 205
# DU-145 = test system: DU-145
# EKVX = test system: EKVX
# HCC 2998 = test system: HCC 2998
# HCT-116 = test system: HCT-116
# HCT-15 = test system: HCT-15
# HL-60 = test system: HL-60
# HOP-62 = test system: HOP-62
# HOP-92 = test system: HOP-92
# HT-29 = test system: HT-29
# Hs-578T = test system: Hs-578T
# IGROV-1 = test system: IGROV-1
# K562 = test system: K562
# KM12 = test system: KM12
# LOX IMVI = test system: LOX IMVI
# M14 = test system: M14
# MCF7 = test system: MCF7
# MDA-MB-231 = test system: MDA-MB-231
# MDA-MB-435 = test system: MDA-MB-435
# MDA-N = test system: MDA-N
# MOLT-4 = test system: MOLT-4
# Malme-3M = test system: Malme-3M
# NCI-H226 = test system: NCI-H226
# NCI-H23 = test system: NCI-H23
# NCI-H460 = test system: NCI-H460
# NCI-H522 = test system: NCI-H522
# NCI/ADR-RES = test system: NCI/ADR-RES
# OVCAR-3 = test system: OVCAR-3
# OVCAR-4 = test system: OVCAR-4
# OVCAR-5 = test system: OVCAR-5
# OVCAR-8 = test system: OVCAR-8
# PC-3 = test system: PC-3
# RPMI-8226 = test system: RPMI-8226
# RXF 393 = test system: RXF 393
# SF-268 = test system: SF-268
# SF-295 = test system: SF-295
# SF-539 = test system: SF-539
# SK-MEL-28 = test system: SK-MEL-28
# SK-MEL-2 = test system: SK-MEL-2
# SK-MEL-5 = test system: SK-MEL-5
# SK-OV-3 = test system: SK-OV-3
# SN12C = test system: SN12C
# SNB-19 = test system: SNB-19
# SNB-75 = test system: SNB-75
# SR = test system: SR
# SW-620 = test system: SW-620
# T47D = test system: T47D
# TK-10 = test system: TK-10
# U-251 = test system: U-251
# UACC-62 = test system: UACC-62
# UO-31 = test system: UO-31
smiles,measurement,setting,value
c1cc2c(cc1NC1=NCCO1)OCO2,GI50,786-0,> 100 µM (inactive)
same,GI50,A498,> 100 µM (inactive)
same,GI50,A549,> 100 µM (inactive)
same,GI50,ACHN,> 100 µM (inactive)
same,GI50,CAKI-1,> 100 µM (inactive)
same,GI50,CCRF-CEM,12.9 µM (inactive)
same,GI50,COLO 205,> 100 µM (inactive)
same,GI50,DU-145,> 100 µM (inactive)
same,GI50,EKVX,> 100 µM (inactive)
same,GI50,HCC 2998,> 100 µM (inactive)
same,GI50,HCT-116,> 100 µM (inactive)
same,GI50,HCT-15,> 100 µM
same,GI50,HL-60,41.2 µM (inactive)
same,GI50,HOP-62,> 100 µM (inactive)
same,GI50,HOP-92,> 70.3 µM (inactive)
same,GI50,HT-29,> 100 µM (inactive)
same,GI50,Hs-578T,> 100 µM (inactive)
same,GI50,IGROV-1,> 100 µM (inactive)
same,GI50,K562,11.9 µM (inactive)
same,GI50,KM12,> 100 µM (inactive)
same,GI50,LOX IMVI,> 100 µM (inactive)
same,GI50,M14,> 100 µM (inactive)
same,GI50,MCF7,> 100 µM (inactive)
same,GI50,MDA-MB-231,> 100 µM (inactive)
same,GI50,MDA-MB-435,50.4 µM (inactive)
same,GI50,MDA-N,42.2 µM (inactive)
same,GI50,MOLT-4,> 100 µM (inactive)
same,GI50,Malme-3M,> 100 µM (inactive)
same,GI50,NCI-H226,> 100 µM (inactive)
same,GI50,NCI-H23,> 100 µM (inactive)
same,GI50,NCI-H460,> 100 µM (inactive)
same,GI50,NCI-H522,> 100 µM (inactive)
same,GI50,NCI/ADR-RES,> 100 µM (inactive)
same,GI50,OVCAR-3,> 100 µM (inactive)
same,GI50,OVCAR-4,> 100 µM (inactive)
same,GI50,OVCAR-5,> 100 µM (inactive)
same,GI50,OVCAR-8,> 100 µM (inactive)
same,GI50,PC-3,> 100 µM (inactive)
same,GI50,RPMI-8226,> 100 µM (inactive)
same,GI50,RXF 393,> 100 µM (inactive)
same,GI50,SF-268,> 100 µM (inactive)
same,GI50,SF-295,> 100 µM (inactive)
same,GI50,SF-539,> 100 µM (inactive)
same,GI50,SK-MEL-28,> 100 µM (inactive)
same,GI50,SK-MEL-2,> 100 µM (inactive)
same,GI50,SK-MEL-5,> 100 µM (inactive)
same,GI50,SK-OV-3,> 100 µM (inactive)
same,GI50,SN12C,> 100 µM (inactive)
same,GI50,SNB-19,> 100 µM (inactive)
same,GI50,SNB-75,45.9 µM (inactive)
same,GI50,SR,64.3 µM (inactive)
same,GI50,SW-620,> 100 µM (inactive)
same,GI50,T47D,> 100 µM (inactive)
same,GI50,TK-10,> 100 µM (inactive)
same,GI50,U-251,> 100 µM (inactive)
same,GI50,UACC-62,> 100 µM (inactive)
same,GI50,UO-31,> 100 µM (inactive)
